Assays:
[1] = test system: B. diazoefficiens ΔhpnH; test: MIC of polymyxin B by E-test; assay type: cell-based, Bradyrhizobium diazoefficiens
Description: (§1) Disk diffusion assays were used to quantify growth under oxidative, acidic and detergent stresses. For this, 4 day-old cultures of B. diazoefficiens strains grown in yeast extract-mannitol (YM) medium were washed and adjusted to an OD600 of 1.2 ml bacterial suspensions were then mixed with 100 ml of 42° C. pre-warmed YM soft agar (0.8% agar) and 5 ml portions of this mixture were poured on solid YM. Filter disks were placed at the center of the plates, and 5 μl of 5.5 M H2O2, 2 M HCl or SDS (10% w/v), were deposited on the disks. The diameters of growth inhibition areas were measured after incubation at 30° C. for 5 days.
(§2) The MIC of polymyxin B was determined by the E-test method using disk diffusion assay as described above. Strips containing a gradient of polymyxin B ranging from 0.064-1024 μg/mL (Biomérieux, Marcy-l'étoile, France) were placed in the center of plates, which were incubated at 30° C. for 7 days before recording the results. The experiment was done in triplicates.

[2] = test system: B. diazoefficiens WT; test: MIC of polymyxin B by E-test; assay type: cell-based, Bradyrhizobium diazoefficiens; conditions: E-test strips 0.064-1024 μg/mL, 30° C., 7 days
Description: as §1, §2

Substance: polymyxin B
- MIC for polymyxin B ([1]; E-test strips 0.064-1024 μg/mL, 30° C., 7 days): 48 µg/mL
- fold lower MIC for polymyxin B in ΔhpnH than WT ([1]; ΔhpnH versus WT): 10 fold
- MIC for polymyxin B [2]: 512 µg/mL

Source: patent US10676406B2, “Hopanoids producing bacteria and related biofertilizers, compositions, methods and systems” (CALIFORNIA INSTITUTE OF TECHNOLOGY, priority 2015, dated 2020)
